Source: patent publication US11111253B2, “6-aryl-7-substituted-3-(1H-pyrazol-5-yl)-7H-[1,2,4]triazolo[3,4-b][1,3,4]thiadiazines as inhibitors of the STAT3 pathway with anti-proliferative activity” (UNIVERSITY OF PITTSBURGH—OF THE COMMONWEALTH SYSTEM OF …, priority 2015, dated 2021)

Columns and labels:
Type in all cases: cell-based
STAT1 = STAT1 assay (selectivity); details: Table 4
Procedure: (§1) Compound samples (in 3-5 mg quantities) were evaluated in a variety of assays. All compound submissions were fully characterized (1H, 13C, IR, FIRMS), satisfied purity criteria (≥95% LC/MC, ELS).

STAT3 = assay: HCS STAT3 assay; details: Table 4
Procedure: as §1

Cal33 cells = assay: Cal33 growth inhibition; details: Table 5; * average of 2 experiments
Procedure: as §1

FADU = assay: Growth inhibition FADU; details: Table 6; average of 2 experiments
OSC19 = assay: Growth inhibition OSC19; details: Table 6; average of 2 experiments
686LN = assay: Growth inhibition 686LN; details: Table 6; average of 2 experiments

In the case of “1-(3-(6-(4-Methoxyphenyl)-7-methyl-7H-[1,2,4]triazolo[3,4-b][1,3,4]thiadiazin-3-yl)-5-phenyl-1H-pyrazol-1-yl)ethanone [8A]”, the IC50 (STAT1) is reported as 40.6 ± 7.5 µM.

In the case of “1-(5-(6-(4-methoxyphenyl)-7-methyl-7H-[1,2,4]triazolo[3,4-b][1,3,4]thiadiazin-3-yl)-3-phenyl-1H-pyrazol-1-yl)ethanone [8B]”, the IC50 (STAT1) is reported as greater than 50 µM and the IC50 (STAT3) is reported as 3.7 µM.

With `COc1ccc(C2=Nn3c(nnc3-c3cc(-c4ccc(Cl)cc4)n[nH]3)S[C@@H]2C)cc1` (single isomer, unassigned; ent-1) [24 (ent-1)] the GI50 (Cal33 cells) was 2.7 µM.

Compound `CC1Sc2nnc(-c3cc(-c4ccccc4)n[nH]3)n2N=C1c1ccccc1` (stereo not shown) [compound 21] has a GI50 (FADU) of 32.7 µM, a GI50 (OSC19) of 31.3 µM and a GI50 (686LN) of 32.2 µM.
